Values joined by “and” are separate entries in the source; they are usually repeats but may differ in a detail not shown here. Equal entries are not always repeated.
Assays:
uterine horns in mice [1] = assay: Weight of uterine horns in ovariectomized mice: estrogen, oxandrolone or combination; conditions: second experiment (oxandrolone); for D Hs/BW (dry horns Rt + Lt / body weight) / Lt H D (left horn dry weight) / Rt H D (right horn dry weight): dried 90° C. 24 hrs; for W Hs/BW (wet horns Rt + Lt / body weight) / Lt H W (left horn wet weight) / Rt H W (right horn wet weight): daily injections 7 days
From the text: (§1) The protocol employed in the experiment included taking ovariectomized female mice ordered from Charles River Laboratories, of which the females were 32-52 days old, after ovariectomy, and separating them into four groups. The first group of mice received daily injections of testosterone for 7 days. A second group of mice received daily injections of estradiol for 7 days. A third group of mice received daily injections of testosterone plus estradiol for 7 days. Finally, the mice in the fourth group received daily injections of a control vehicle for 7 days. All of the injections were given 1M at 10 AM, alternatively to the right and left buttock. The daily amount injected of the estradiol and/or testosterone was 10 μg/Kg of each hormone, delivered at a dose of 0.25 ml.
(§2) The injections were produced based upon the following protocols. The estradiol selected was the oil-dissolved 17β-estradiol from Sigma (17β-estradiol E-8875. The estradiol was prepared by dissolving 200 μg of the hormone in 0.25 ml ethanol for a ×1000 stock (0.8 mg/1 ml=×1000 stock). Next, 10 μl aliquots were dispensed into nine 15 ml conical plastic tubes and frozen. For each injection, one of the tubes was thawed, 9.99 ml saline was added and then mixed to obtain 10 ml of the solution at a level of 0.8 μg/1 ml. Then, 0.25 ml were injected into each animal.
A second experiment was performed using the protocols set above. The only change included replacing testosterone with oxandrolone. The oxandrolone was prepared by dissolving a 20 mg powder of the original vial in 1.0 ml of DMSO. 100 μl aliquots were then dispensed into 10 new vials (each containing now 2 mg/vial, or 20 μg/μl) and all vials, except one, were frozen at −20° C. The 9 frozen vials are referred to herein as “Original Stocks”.
Next, one of the Original Stock vials containing 100 μl of 20 μg/μl Oxandrolone was diluted to a 1:5 ratio in DMSO by adding 400 μl DMSO. […] 50 μl aliquots were then dispensed into 10 vials (each containing now 0.4 μg/μl, or 20 μg/50 μl) of which nine were frozen. The frozen vials from this part of the experiment are herein referred to as “Diluted Stocks”.
One Diluted Stock vial was taken and diluted in 24.95 ml saline to get a solution of 20 μg/25 ml oxandrolone, or 0.2 μg/0.25 ml. The 0.5 ml aliquots are then dispensed into 20 vials and frozen. The remaining 15 ml were discarded. On the day of injection, each one of the vials was thawed 0.25 ml were injected into each animal based upon a 20 gm animal. The dose injected may be adjusted per actual weight of the animal (may vary from 19 gm to 24 gm, 0.238 ml to 0.3 ml).
After the last day of injections, the mice were weighed and then euthanized in a CO2 chamber. Blood was obtained from the heart in an amount of 2-5 ml. Time was allotted to let it clot and then it was centrifuged and the serum was collected and stored at −80° C. The abdomen was opened by a longitudinal ventral incision. Then the uterine horns were identified and the right horn was transected from the level of the vagina until the ovary (thus, without the ovary and without the parametrium). This process was repeated for the left horn. Both horns were weighed to determine the wet weight of the horns. Then the horns were placed on silver foil paper and baked in an oven at 90° C. for 24 hrs. Then the dry weight of the horns was taken.

uterine horns in mice [2] = assay: Weight of uterine horns in ovariectomized mice: estrogen, testosterone or combination; conditions: daily injections 7 days, 10 μg/Kg of each hormone; for D Hs/BW (dry horns Rt + Lt / body weight) / Lt H D (left horn dry weight) / Rt H D (right horn dry weight): dried 90° C. 24 hrs
From the text: Applicants performed a set of experiments to determine the effects of estrogen and testosterone on weight of uterine horns in mice.
as §1, §2
The testosterone selected was testosterone enanthane from Bristol Myers Squib (Delatestryl™). The testosterone was prepared by aspirating […] from a bottle containing 200 mg/1 ml testosterone via a tuberculin syringe of 1.0 ml. Next, 24.9 ml of ethanol was poured into a 50 ml conical plastic tube. Then 0.1 ml of the testosterone was dissolved in the syringe with the 24.9 ml of ethanol. This produced a ×1000 stock of 0.8 mg/1 ml. Similar to the estradiol protocol, next, 10 μl aliquots were dispensed into nine 15 ml conical plastic tubes and frozen. For each injection, one of the tubes was thawed, 9.99 ml saline is added and then mixed to obtain 10 ml of the solution at a level of 0.8 μg/1 ml. Then, 0.25 ml were injected into each animal. The injections were based for a 20 gm animal. The dose injected per actual weight of the animal may be adjusted by varying the weight, i.e., may vary from 19 gm to 24 gm (0.238 ml to 0.3 ml).
After the seven days of injections, the mice were euthanized via injection from Lumina. The mice were then weighed. After midline laparotomy, 2 ml to 5 ml does of blood was obtained from the heart. The blood was allowed to clot and was then centrifuged and the resulting serum was collected and stored at −80° C. The uterine horns were then identified, transected from the level of the vagina till the ovary (without the ovary and without the parametrium), weighted (i.e., wet weight of Rt and Lt horn), and placed separately in a piece of silver foil paper, and baked in an oven at 90° C. for 24 hrs to obtain the dry weight of the horns.

[3] = individual animal, ovariectomized female mice

Row | Compound | D Hs/BW (dry horns Rt + Lt / body weight) (uterine horns in mice [1]; group mean) | W Hs/BW (wet horns Rt + Lt / body weight) (uterine horns in mice [1]; group mean) | D Hs/BW (dry horns Rt + Lt / body weight) (uterine horns in mice [1]; individual animal) | Lt H D (left horn dry weight) (uterine horns in mice [1]; individual animal) | Rt H D (right horn dry weight) (uterine horns in mice [1]; individual animal) | Lt H W (left horn wet weight) (uterine horns in mice [1]; individual animal) | Rt H W (right horn wet weight) (uterine horns in mice [1]; individual animal) | W Hs/BW (wet horns Rt + Lt / body weight) (uterine horns in mice [1]; individual animal) | Lt H W (left horn wet weight) (uterine horns in mice [2]; group mean) | Rt H W (right horn wet weight) (uterine horns in mice [2]; group mean) | W Hs/BW (wet horns Rt + Lt / body weight) (uterine horns in mice [2]; group mean) | D Hs/BW (dry horns Rt + Lt / body weight) (uterine horns in mice [2]; group mean) | Lt H D (left horn dry weight) (uterine horns in mice [2]; group mean) | Rt H D (right horn dry weight) (uterine horns in mice [2]; group mean) | D Hs/BW (dry horns Rt + Lt / body weight) (uterine horns in mice [2]; individual animal) | Lt H D (left horn dry weight) (uterine horns in mice [2]; individual animal) | Rt H D (right horn dry weight) (uterine horns in mice [2]; individual animal) | Lt H W (left horn wet weight) (uterine horns in mice [2]; [3]) | Rt H W (right horn wet weight) (uterine horns in mice [2]; [3]) | W Hs/BW (wet horns Rt + Lt / body weight) (uterine horns in mice [2]; [3])
1 | C[C@]12COC(=O)C[C@@H]1CC[C@@H]1[C@@H]2CC[C@@]2(C)[C@H]1CC[C@]2(C)O [Ox, oxandrolone] | 0.35 mg/gm | 1.54 mg/gm | 0.26 mg/gm and 0.20 mg/gm and 0.76 mg/gm and 0.16 mg/gm and 0.37 mg/gm | 2.3 mg and 2.2 mg and 5.5 mg and 1.4 mg and 4.3 mg | 3.4 mg and 2.0 mg and 12.5 mg and 2.2 mg and 4.2 mg | 14.4 mg and 13.8 mg and 22.9 mg and 11.3 mg and 19.4 mg | 16.5 mg and 12.0 mg and 35.7 mg and 13.2 mg and 14.6 mg | 1.40 mg/gm and 1.22 mg/gm and 2.47 mg/gm and 1.11 mg/gm and 1.50 mg/gm | – | – | – | – | – | – | – | – | – | – | – | –
2 | CCCCCCC(=O)O[C@H]1CC[C@H]2[C@@H]3CCC4=CC(=O)CC[C@]4(C)[C@H]3CC[C@]12C [T, testosterone enanthane] | – | – | – | – | – | – | – | – | 12.6 mg | 14.0 mg | 1.21 mg/gm | 0.27 mg/gm | 3.2 mg | 2.8 mg | 0.57 mg/gm and 0.25 mg/gm and 0.16 mg/gm and 0.09 mg/gm and 0.31 mg/gm | 8.2 mg and 4.3 mg and 0.8 mg and 0.9 mg and 1.9 mg | 4.3 mg and 1.1 mg (2×) and 2.5 mg and 4.8 mg | 21.3 mg and 15.6 mg and 3.7 mg and 8.4 mg and 13.9 mg | 16.2 mg and 11.7 mg and 13.5 mg and 8.4 mg and 20.1 mg | 1.72 mg/gm and 1.26 mg/gm and 0.81 mg/gm and 0.72 mg/gm and 1.55 mg/gm
3 | C[C@]12CC[C@@H]3c4ccc(O)cc4CC[C@H]3[C@@H]1CC[C@@H]2O [E, 17β-estradiol] | 0.66 mg/gm | 3.63 mg/gm | 0.97 mg/gm and 0.60 mg/gm and 0.61 mg/gm and 0.49 mg/gm and 0.63 mg/gm | 12 mg and 4.8 mg and 7.7 mg and 4.6 mg and 5 mg | 9.9 mg and 7.3 mg and 4.7 mg and 6.5 mg and 8.0 mg | 44.9 mg and 29.7 mg and 48.1 mg and 34.4 mg and 32.7 mg | 46.7 mg and 41.2 mg and 30 mg and 35 mg and 44.2 mg | 4.06 mg/gm and 3.52 mg/gm and 3.82 mg/gm and 3.05 mg/gm and 3.70 mg/gm | 20.0 mg | 19.5 mg | 1.82 mg/gm | 0.27 mg/gm | 2.9 mg | 3.0 mg | 0.28 mg/gm and 0.21 mg/gm and 0.38 mg/gm and 0.24 mg/gm and 0.22 mg/gm | 2.9 mg and 2.2 mg and 4.2 mg and 2.6 mg and 2.4 mg | 3.3 mg and 2.5 mg and 4.0 mg and 2.4 mg and 2.6 mg | 21.5 mg and 18.0 mg and 24.2 mg and 19.5 mg and 16.7 mg | 20.6 mg and 16.2 mg and 26.6 mg and 17.3 mg and 16.9 mg | 1.92 mg/gm and 1.55 mg/gm and 2.37 mg/gm and 1.79 mg/gm and 1.47 mg/gm
